Values quoted from earlier work, collected in US6548637B1, “Ligands for opioid receptors” (Sepracor, Inc., priority 1998, dated 2003).

System: mice
Settings: intracerebroventricular injections to mice

Compound: NC(=O)C(Cc1ccccc1)NC(=O)[C@H](Cc1ccccc1)NC(=O)C1CCCN1C(=O)[C@@H](N)Cc1ccc(O)cc1 (stereo partly drawn) [Example 2, Tyr-Pro-Phe-Phe-NH2]
- ED50 (analgesia): 2.9 µg

Compound: NC(=O)[C@H](Cc1ccccc1)NC(=O)[C@H](Cc1c[nH]c2ccccc12)NC(=O)C1CCCN1C(=O)[C@@H](N)Cc1ccc(O)cc1 (stereo partly drawn) [Example 1, Tyr-Pro-Trp-Phe-NH2]
- ED50 (analgesia): 8.4 µg
